Laboratory results taken from patent EP1383793B1 (priority 2000, dated 2001).
Positions of bridges follow the written chain, without caps; N, C: chain ends. Residues, ends and D or L forms follow the SMILES beside them. *: point of attachment. Biotin = O=C1N[C@H]2[C@H](CS[C@H]2CCCCC(=O)*)N1

Key:
Insulin receptor = target: T1, Insulin receptor (Homo sapiens, UniProt P06213); test: BIAcore competition: IR pre-incubated with test substance, injected over immobilised insulin; type: binding; details: peptide about 40 µM, IR 450 nM; IR alone 128 RU
T1 construct: composed of the extracellular domains of both the α and β chains of the natural receptor; made in house; background b13 names human embryonic kidney 293 cells for the Bass et al. construct
T1 sequence (P06213 28-758 limits assumed): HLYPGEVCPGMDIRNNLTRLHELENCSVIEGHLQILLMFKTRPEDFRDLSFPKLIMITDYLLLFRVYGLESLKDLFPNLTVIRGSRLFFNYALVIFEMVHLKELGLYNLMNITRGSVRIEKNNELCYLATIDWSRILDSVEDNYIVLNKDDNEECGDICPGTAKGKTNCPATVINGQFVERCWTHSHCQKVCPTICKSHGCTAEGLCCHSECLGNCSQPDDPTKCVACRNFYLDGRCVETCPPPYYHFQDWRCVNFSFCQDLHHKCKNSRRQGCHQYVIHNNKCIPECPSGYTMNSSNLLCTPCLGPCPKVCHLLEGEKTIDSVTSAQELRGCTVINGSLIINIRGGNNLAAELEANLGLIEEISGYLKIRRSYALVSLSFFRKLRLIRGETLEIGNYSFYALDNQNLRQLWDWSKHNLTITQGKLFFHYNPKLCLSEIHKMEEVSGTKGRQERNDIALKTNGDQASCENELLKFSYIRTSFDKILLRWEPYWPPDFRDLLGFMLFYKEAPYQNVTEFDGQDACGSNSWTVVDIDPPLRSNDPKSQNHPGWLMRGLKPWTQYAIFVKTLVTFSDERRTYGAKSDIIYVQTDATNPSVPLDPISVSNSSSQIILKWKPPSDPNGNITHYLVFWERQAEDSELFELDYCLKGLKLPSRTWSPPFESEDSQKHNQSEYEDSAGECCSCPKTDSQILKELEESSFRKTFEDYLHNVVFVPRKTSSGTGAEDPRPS
T1 sequence (P06213 763-956 limits assumed): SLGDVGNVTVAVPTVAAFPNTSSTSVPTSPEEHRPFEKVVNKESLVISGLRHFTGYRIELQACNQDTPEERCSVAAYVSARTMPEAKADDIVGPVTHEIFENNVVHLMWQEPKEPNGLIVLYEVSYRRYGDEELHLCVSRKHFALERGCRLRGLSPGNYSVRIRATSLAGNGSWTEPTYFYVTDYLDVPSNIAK
Procedure: Flowcell-1 was used for background binding to correct for any non-specific binding. […] The surface was regenerated with 25 mM NaOH. […] Thus, the system was validated for competition studies. […] The amino acid sequences referred to in the tables are identified in Figures 47 and 48, except the 447 and 2A9 sequences, which are shown below. TABLE 9: BIAcore Results-Fusion Proteins Compete for Binding to IR

[1] = target: T2, purified insulin receptor (Homo sapiens, UniProt P06213); test: Holoenzyme phosphorylation assay (IR autophosphorylation, Western blot); type: biochemical
T2 construct: host or cells: 'Wheat Germ Agglutinin Expression System' (so in the source)
T2 sequence (P06213 28-758 limits assumed): as the sequence (P06213 28-758 limits assumed) above
T2 sequence (P06213 763-1382 limits assumed): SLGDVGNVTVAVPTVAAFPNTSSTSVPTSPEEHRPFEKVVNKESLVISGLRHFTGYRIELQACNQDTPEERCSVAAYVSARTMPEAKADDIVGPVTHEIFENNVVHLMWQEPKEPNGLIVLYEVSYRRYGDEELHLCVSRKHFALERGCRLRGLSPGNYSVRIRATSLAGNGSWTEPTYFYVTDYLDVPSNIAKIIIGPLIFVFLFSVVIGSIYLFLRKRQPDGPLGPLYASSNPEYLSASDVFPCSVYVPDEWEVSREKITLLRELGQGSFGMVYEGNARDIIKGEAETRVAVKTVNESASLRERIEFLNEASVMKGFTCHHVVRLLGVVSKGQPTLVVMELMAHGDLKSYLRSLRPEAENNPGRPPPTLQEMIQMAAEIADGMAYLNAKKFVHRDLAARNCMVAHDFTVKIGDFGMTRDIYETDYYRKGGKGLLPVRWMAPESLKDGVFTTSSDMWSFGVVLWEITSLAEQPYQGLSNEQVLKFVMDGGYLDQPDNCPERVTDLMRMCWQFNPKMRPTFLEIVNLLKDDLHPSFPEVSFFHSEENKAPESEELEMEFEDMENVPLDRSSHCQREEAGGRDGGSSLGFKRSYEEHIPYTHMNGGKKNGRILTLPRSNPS
Procedure: Alternatively, IR autophosphorylation was determined using a holoenzyme phosphorylation assay. […] The reaction was stopped by adding 50 µl of gel loading buffer containing β-mercaptoethanol (Bio-Rad Laboratories, Inc., Hercules, CA). The samples were run on 4-12% SDS-polyacrylamide gels. Western Blot analysis was performed by transferring the proteins onto nitrocellulose membrane. The membrane was blocked in PBS containing 3% milk overnight. The membrane was incubated with anti-phosphotyrosine 4G10 HRP labeled antibody (Upstate Biotechnology) for 2 h. Protein bands were visualized using SuperSignal West Dura Extended Duration Substrate Chemiluminescence Detection System (Pierce Chemical Co.).

IGF-1R [2] = target: T3, IGF-1R (Homo sapiens, UniProt P08069); test: Phage ELISA, binding of phage-displayed peptides to IGF-1R; details: 405 nm
T3 construct: Soluble IGF-1R was obtained from R&D Systems; purchased R&D Systems 391-GR/CF
T3 sequence (P08069 31-736 limits assumed): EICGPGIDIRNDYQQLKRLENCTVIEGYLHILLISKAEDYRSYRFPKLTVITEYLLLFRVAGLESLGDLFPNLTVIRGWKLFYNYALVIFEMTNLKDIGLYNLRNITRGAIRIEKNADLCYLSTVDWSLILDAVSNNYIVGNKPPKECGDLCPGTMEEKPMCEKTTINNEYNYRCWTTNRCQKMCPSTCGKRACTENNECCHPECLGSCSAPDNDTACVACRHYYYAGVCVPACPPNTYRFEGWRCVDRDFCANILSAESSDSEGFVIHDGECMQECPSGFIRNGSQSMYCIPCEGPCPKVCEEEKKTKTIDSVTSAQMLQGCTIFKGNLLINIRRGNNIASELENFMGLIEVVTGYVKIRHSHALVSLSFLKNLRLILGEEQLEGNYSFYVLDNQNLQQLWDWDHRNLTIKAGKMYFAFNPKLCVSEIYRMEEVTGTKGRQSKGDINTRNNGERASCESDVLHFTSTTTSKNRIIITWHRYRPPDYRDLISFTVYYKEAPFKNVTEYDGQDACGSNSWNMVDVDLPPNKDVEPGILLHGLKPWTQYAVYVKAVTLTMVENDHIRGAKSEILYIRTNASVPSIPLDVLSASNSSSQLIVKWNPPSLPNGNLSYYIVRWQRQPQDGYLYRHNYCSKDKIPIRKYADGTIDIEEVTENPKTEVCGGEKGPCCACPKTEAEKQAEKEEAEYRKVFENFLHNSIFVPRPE
T3 sequence (P08069 741-935 limits assumed): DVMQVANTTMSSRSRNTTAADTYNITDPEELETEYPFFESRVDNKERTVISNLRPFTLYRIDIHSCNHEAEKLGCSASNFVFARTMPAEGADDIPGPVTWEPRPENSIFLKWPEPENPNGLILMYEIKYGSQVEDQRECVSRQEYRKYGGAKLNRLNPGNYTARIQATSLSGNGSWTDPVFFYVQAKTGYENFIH
Procedure: Figures 1A-10G. Amino acid sequences comprising the motif of Formulas 1 through 10. […] One hundred microliters of this solution was added to an appropriate number of wells in a 96-well microtiter plate (MaxiSorp plates, Nunc) and incubated overnight at 4°C. […] Subsequent steps are the same for pooled and clonal phage. […] Phage resuspended in MPBS were added to duplicate wells (100 µl/well) and incubated at RT for 1 h. […] Incubation was for 1 h at RT, followed by PBS washes as described. […] Phage ELISA. […] The wells were blocked with 200 µl of MPBS for 1.5 h at RT. Phage were added at 100 µl per well. Peptides were added as noted below and allowed to incubate at RT for 3 h. The plates were washed 3 times with PBST. A solution of 1:3000 diluted HRP:Anti-M13 conjugate at 100 µl per well of was added for 1 h. Following a repeat of the washing, 100 µl of ABTS was added for 15-30 min. […] Phage ELISA. […] Phage were added at 100 µl per well. Peptides were added as noted below and allowed to incubate at RT for 3 h. The plates were washed 3X with PBST. A solution of 1:3000 diluted HRP:Anti-M13 Conjugate at 100 µl per well of was added for 1 h. Following a repeat of the washing, 100 µl of ABTS was added for 15-30 min. The OD405 was measured using a SpectraMax 340 Microplate Spectrophotometer.

[3] = Precipitate in diluted peptide stock prior to adding to the fat cell assay; solubility under assay conditions; type: physicochemical; details: diluted stock prior to adding to assay
adipocytes = test: 3H-glucose uptake into adipocytes (fat cell assay, FFC); type: cell-based, Mouse; details: Subjective ranking; basal and sub maximal insulin; includes series A
IR = target: T4, IR (Homo sapiens, UniProt P06213); test: Phage ELISA, binding of phage-displayed peptides to IR; details: 405 nm
T4 construct: composed of the extracellular domains of both the α and β chains of the natural receptor; made in house; background b13 names human embryonic kidney 293 cells for the Bass et al. construct
T4 sequence (P06213 28-758 limits assumed): as the sequence (P06213 28-758 limits assumed) above
T4 sequence (P06213 763-956 limits assumed): as the sequence (P06213 763-956 limits assumed) above

IGF-1R [4] = target: T3, IGF-1R; test: IGF-1R peptide assay, competition dissociation of 20E2; type: binding; details: peptides 100 µM, IGF-1 30 µM
Procedure: • a. Preparation of the Assay Mix. […] This mixture was allowed to pre-incubate. • b. 20 µl of Competitor and Buffer were added to a 96-well microtiter plate (Costar Cat. #3912). • c. […] After the original 99 repeat readings were taken, periodic readings were taken until equilibrium had been established. NOTE: Different conditions can be used for these experiments. For example, a 1.1X concentration of assay mix can be initially made. Then first add 10 µl of Competitor and Buffer to the microtiter plate followed by 90 µl of the Assay Mix. • f.

Result (RUs) (Insulin receptor): 41.6 RUs
Autophosph. Blot [1]: 0
Absorbance Values sIGF-1R (IGF-1R [2]): 2.19
Comments (precipitation) [3]: Precipitates
Absorbance Values IR (IR): 1.42
effect on dissociation rate of 20E2 from IGF-1R (IGF-1R [4]): much slower dissociation rate
Structure (SMILES): CC(C)C[C@H](NC(=O)[C@H](Cc1c[nH]c2ccccc12)NC(=O)[C@@H](N)CCCCN)C(=O)N[C@@H](CC(=O)O)C(=O)N[C@@H](CCC(N)=O)C(=O)N[C@@H](CCC(=O)O)C(=O)N[C@@H](Cc1c[nH]c2ccccc12)C(=O)N[C@@H](C)C(=O)N[C@@H](Cc1c[nH]c2ccccc12)C(=O)N[C@H](C(=O)N[C@@H](CCC(N)=O)C(=O)N[C@H]1CSSC[C@@H](C(=O)N2CCC[C@H]2C(=O)N[C@@H](CO)C(=O)N[C@@H](CCCCN)C(=O)N[C@@H](CCCCNC(=O)CCCC[C@@H]2SC[C@@H]3NC(=O)N[C@@H]32)C(N)=O)NC(=O)CNC(=O)[C@H](CCCNC(=N)N)NC(=O)CNC(=O)[C@H](Cc2ccc(O)cc2)NC(=O)[C@H](C(C)C)NC(=O)[C@H](CCC(=O)O)NC1=O)C(C)C [Clone D8] (H-KWLDQEWAWVQCEVYGRGCPSKK(Biotin)-NH2; disulfide 12-19 (inferred); N-terminus assumed)
Resp. (adipocytes): -1
